# Assay results as given in patent US20230135894A1, “MK2 DEGRADERS AND USES THEREOF” (Kymera Therapeutics, Inc., priority 2021, published 2023).
# Tests used:
# [1] = molecular target: T1, MK2 (Homo sapiens, UniProt P49137); assay: MK2 degradation in human THP-1 monocytic cells (MSD, 24 h); format: cell-based; parameters: endogenous in cells; conditions: for Dmax: THP-1, THP-1 cells; for DC50: THP-1 cells, read-out: MK2 MSD THP-1 degradation 24 h GMean External Abs DC50
# In short: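 Readout: residual MK2 protein in THP-1 lysates, measured by MSD electrochemiluminescence sandwich assay after 24 h compound exposure (≤10-point serial dilutions, 0.1% DMSO, 37 °C). Curves normalised between lysis-buffer and DMSO-cell signals; DC50 by 4-parameter logistic fit.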
# [2] = molecular target: T1, MK2; assay: MK2 degradation in human SW1353 cells (MSD, 24 h); format: cell-based; parameters: endogenous in cells; host or cells: SW-1353 (ATCC HTB-94); conditions: for Dmax: read-out: MK2 MSD SW 1353 24 h Dmax %; for DC50: read-out: MK2 MSD SW1353 degradation 24 h GMean External Abs DC50
# In short: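 DC50 derived by 4-parameter logistic fit, with DMSO-treated signal as top and lysis-buffer signal as bottom. Remaining MK2 was measured by MSD electrochemiluminescent sandwich assay in RIPA lysates of human SW1353 cells exposed for 24 h at 37 °C to serially diluted compound in 0.1% DMSO.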
# T1 sequence (P49137 whole entry): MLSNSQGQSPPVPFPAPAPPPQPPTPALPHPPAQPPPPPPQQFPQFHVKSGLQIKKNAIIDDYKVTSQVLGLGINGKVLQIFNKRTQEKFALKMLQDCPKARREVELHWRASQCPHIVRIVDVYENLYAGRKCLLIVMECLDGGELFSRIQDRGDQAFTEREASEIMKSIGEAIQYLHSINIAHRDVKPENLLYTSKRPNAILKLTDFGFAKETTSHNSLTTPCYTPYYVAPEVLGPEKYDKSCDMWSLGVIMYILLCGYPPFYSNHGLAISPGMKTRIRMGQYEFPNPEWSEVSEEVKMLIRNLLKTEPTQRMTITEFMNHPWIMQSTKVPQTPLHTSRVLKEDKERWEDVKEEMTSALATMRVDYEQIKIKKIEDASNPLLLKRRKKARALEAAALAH
Compound,Dmax [1] [%],DC50 [1] [nM],Dmax [2] [%],DC50 [2] [nM]
C[C@@H]1CNc2c(sc3ccc4nc(-c5ccc(N6CCN(C[C@H]7C[C@H](c8ccc9c(c8)n(C)c(=O)n9C8CCC(=O)NC8=O)C7)CC6)cc5)ccc4c23)C(=O)N1 (stereo partly shown) [Compound I-222],> 75,< 1,> 75,< 1
Cn1c(=O)n(C2CCC(=O)NC2=O)c2ccc(N3CCC(CN4CCN(c5cc(-c6ccccc6)cc(-c6cc(-c7cc8c([nH]7)CCNC8=O)ccn6)c5)CC4)CC3)cc21 (stereo not shown) [Compound I-224],< 50,> 100,< 50,> 100
Cn1c(=O)n(C2CCC(=O)NC2=O)c2ccc(N3CCC(CN4CCN(c5cc(C#N)cc(-c6cc(-c7cc8c([nH]7)CCNC8=O)ccn6)c5)CC4)CC3)cc21 (stereo not shown) [Compound I-225],< 50,> 100,< 50,> 100
Cn1c(=O)n(C2CCC(=O)NC2=O)c2ccc(N3CCC(CN4CCN(c5ccc(-c6cc(-c7cc8c([nH]7)CCNC8=O)ccn6)c(F)c5)CC4)CC3)cc21 (stereo not shown) [Compound I-226],> 75,< 1,> 75,< 1
Cc1cc(N2CCN(CC3CCN(c4ccc5c(c4)n(C)c(=O)n5C4CCC(=O)NC4=O)CC3)CC2)ccc1-c1cc(-c2cc3c([nH]2)CCNC3=O)ccn1 (stereo not shown) [Compound I-229],< 50,> 100,< 50,> 100
CC(C)Oc1cc(-c2ccc3c(ccc4sc5c(c43)NC[C@@H](C)NC5=O)n2)cc(N2CCN(CC3CCN(c4ccc5c(c4)n(C)c(=O)n5C4CCC(=O)NC4=O)CC3)CC2)c1 (stereo partly shown) [Compound I-230],> 75,< 1,> 75,< 1
CC(C)c1cc(-c2ccc3c(ccc4sc5c(c43)NC[C@@H](C)NC5=O)n2)cc(N2CCN(CC3CCN(c4ccc5c(c4)n(C)c(=O)n5C4CCC(=O)NC4=O)CC3)CC2)c1 (stereo partly shown) [Compound I-231],> 75,1 to 10,> 75,1 to 10
C[C@@H]1CNc2c(sc3ccc4nc(-c5ccc([C@H]6CC[C@H](CN7CCN(c8ccc9c(c8)n(C)c(=O)n9C8CCC(=O)NC8=O)CC7)CC6)nc5)ccc4c23)C(=O)N1 (stereo partly shown) [Compound I-232],> 75,< 1,> 75,< 1
CCc1cc(-c2ccc3c(ccc4sc5c(c43)NC[C@@H](C)NC5=O)n2)cc(N2CCN(CC3CCN(c4ccc5c(c4)n(C)c(=O)n5C4CCC(=O)NC4=O)CC3)CC2)c1 (stereo partly shown) [Compound I-233],> 75,1 to 10,> 75,1 to 10
Cc1nc(N2CCN(CC3CN(c4ccc5c(c4)n(C)c(=O)n5C4CCC(=O)NC4=O)C3)CC2)ccc1-c1ccc2c(ccc3sc4c(c32)NC[C@@H](C)NC4=O)n1 (stereo partly shown) [Compound I-234],> 75,< 1,> 75,< 1
C[C@@H]1CNc2c(sc3ccc4nc(-c5ccc(N6CCN(CC7CN(c8ccc9c(c8)n(C)c(=O)n9C8CCC(=O)NC8=O)C7)CC6)cc5Cl)ccc4c23)C(=O)N1 (stereo partly shown) [Compound I-235],> 75,< 1,> 75,< 1
Cc1cc(N2CCN(CC3CN(c4ccc5c(c4)n(C)c(=O)n5C4CCC(=O)NC4=O)C3)CC2)ccc1-c1ccc2c(ccc3sc4c(c32)NC[C@@H](C)NC4=O)n1 (stereo partly shown) [Compound I-236],> 75,< 1,> 75,< 1
C[C@@H]1CNc2c(sc3ccc4nc(-c5ccc(N6CCN(CC7CN(c8ccc9c(c8)n(C)c(=O)n9C8CCC(=O)NC8=O)C7)CC6)cc5F)ccc4c23)C(=O)N1 (stereo partly shown) [Compound I-237],> 75,< 1,> 75,< 1
COc1cc(-c2ccc3c(ccc4sc5c(c43)NC[C@@H](C)NC5=O)n2)cc(N2CCN(CC3CCN(c4ccc5c(c4)n(C)c(=O)n5C4CCC(=O)NC4=O)CC3)CC2)c1 (stereo partly shown) [Compound I-239],> 75,< 1,> 75,< 1
C[C@@H]1CNc2c(sc3ccc4nc(-c5cc(C#N)cc(N6CCN(CC7CCN(c8ccc9c(c8)n(C)c(=O)n9C8CCC(=O)NC8=O)CC7)CC6)c5)ccc4c23)C(=O)N1 (stereo partly shown) [Compound I-240],> 75,< 1,> 75,< 1
Cn1c(=O)n(C2CCC(=O)NC2=O)c2cccc(CCCN3CCN(c4ccc(-c5cc(-c6cc7c([nH]6)C6(CC6)CNC7=O)ccn5)cc4)CC3)c21 (stereo not shown) [Compound I-241],50 to 75,1 to 10,> 75,1 to 10
